# Reference: patent US12528840B2, “Transcription active complex targeting cancer drug from viral protein sequence” (The Regents of the University of California, priority 2020, dated 2026)
# Experiments:
# NU-DUL1 cell = experiment: Cell growth inhibition with deletion peptides; assay type: cell-based
# Excerpt: FIG. 7. Cell growth inhibition with deletion peptides identified key amino acid residue.
# BCL2 mutations are frequently seen in B-cell lymphoma and the cell types are often refractory to chemotherapy due to anti-apoptotic phenotype. […] In addition, Essential Leucine residue is identified with the deletion peptides.
# IRF4 = experiment: Intracellular staining of IRF4 in LPS-activated THP-1 cells; assay type: cell-based; conditions: THP-1, LPS 100 ng/ml, 16 μM, 24 hours
# Excerpt: FIG. 16. Effect of MBK50 on MYC and IRF4 expression in LPS-activated monocytic leukemia cell line THP-1 cells. […] MYC and IRF4 expression levels were examined by intracellular staining of MYC and IRF4 with isotype control staining followed by flow cytometry. FIG. 16(a) A scheme of the experimental procedure. FIG. 16(b) A representative histogram overlay for the MYC expression in THP-1 cells treated with MBK50, mutant control peptide or PBS, with isotype control. The average mean fluorescent intensity (MFI) for MYC expression (n=3) for each treatment is shown in the right panel. FIG. 16(c) A representative histogram overlay for the IRF4 expression (red) in THP-1 cells treated with MBK50, mutant control peptide, or PBS, with isotype control (blue). The average MFI for IRF4 expression for each treatment is shown in the right panel.
# MYC is important for monocytic cell proliferation, especially upon LPS stimulation. […] MYC and IRF4 expression levels were examined by intracellular staining of MYC and IRF4 with isotype control staining followed by flow cytometry (FIG. 16a). […] Also, the percentage of THP-1 cells with reduced IRF4 expression was increased by MBK50 treatment compared to mutant control peptide or PBS treatment.
# human CD3 T cells = experiment: CD3 T cell proliferation after anti-CD3/28 stimulation, flow cytometry; assay type: cell-based; conditions: 32 μM, 24 hours after 16 hours anti-CD3/28
# Protocol: To evaluate the effect of the peptide on human CD3 T cells, CD3 T cells were enriched by magnetic beads (CD3 positive selection beads, Stemcell technology) from PBMC samples from 5 healthy donors and stimulated with anti-CD3/28 tetramer (Stemcell technology) in triplicates for 16 hours before treating with PBS, MBK50 (32 μM) and Mutant peptide (32 μM) for 24 hours. Activated proliferating IRF4^+Ki67^+ CD3 T cells (red square in FIG. 5) in the culture were analyzed by live/dead-red staining (Invitrogen) and intracellular staining with anti-Ki67-FITC (Biolegend) and anti-IRF4-APC (Biolegend) antibodies. A representative flow cytometry profiles are shown in FIG. 5(a) for gating live CD3 T cell population and FIG. 5(b) Ki67 vs IRF4 for the gated live CD3 T cells. For FIG. 5(c-e), the means of triplicate cultures in each experiment for live cells % (c, n=5), total CD3 T cell numbers (d, n=5), and % of Ki67^+ cells (e, n=3) are shown in the top panel. The bottom panel are normalized data to PBS control cultures. P values calculated with Prism using one-way ANOVA with paired comparison. p<0.05 statistically significant.
# CD14+ monocytes = experiment: CD14+ monocyte live/dead staining; assay type: cell-based; conditions: 16 or 32 μM, 2 days; PBS, LPS, polyIC conditions; vs control peptide or PBS
# Protocol: FIG. 13. Effect of MBK50 on CD14+ monocytes. FIG. 13(a) A scheme of the experimental procedure. CD14+ monocytes were prepared with magnetic beads from the PBMC of healthy donors. Cells were washed and cultured at 1×10^6/ml in a 96 well plate (200 μl/well in triplicates) without or with LPS (100 ng/ml) or poly I:C (10 μg/ml) in the presence of MBK (16 or 32 μM) or mutant peptide (32 μM) for 2 days. Live cells were determined using live/dead staining followed by flow cytometry analysis. FIG. 13(b) A representative flow profile with the gating strategy for live cells is shown. FIG. 13(c) Averages percentage of live cells for each culture condition are shown. **p<0.01, ***p<0.001, ****p<0.0001
# Monocytic cells are important antigen-presenting cells bridging innate and antigen-specific immune responses. To evaluate the effect of MBK on monocytic cells, CD14+ monocytes were prepared with magnetic beads from the PBMC of healthy donors. Cells were washed and cultured at 1×10^6/ml in a 96 well plate (200 μl/well in triplicates) without or with LPS (100 ng/ml) or poly I:C (10 μg/ml) in the presence of MBK (16 or 32 μM) or mutant peptide (32 μM) for 2 days. Live cells were determined using live/dead staining, followed by flow cytometry analysis.
# PEL cells = experiment: PEL cell killing by delivered peptide (MTS live-cell assay); assay type: cell-based; conditions: peptide delivered into PEL, a MYC-dependent cancer
# Protocol: FIGS. 1A-H. Viral protein sequence based cancer drug. (FIG. 1A) Discovery of hijacking transcription machinery in KSHV reactivating cells (Chen et al., J. Virol 2017). […] (FIG. 1B) Reporter assay. KSHV ORF50 overexpression inhibits MYC activation. (FIG. 1C) Chromatin immunoprecipitation with Mass Spectrometry. Proteins inducibly interact with both ORF50 and RNA polII are shown. […] (FIG. 1E) Mapping of interacting domain. GST-pull down was performed to identify NCoA2 binding domains. Purified NCoA2 was made from recombinant baculovirus infected cells and KSHV ORF50 deletion proteins were made in E. coli. Peptides are then generated as TAT-fusion for cell penetration. (FIG. 1F) ChIP-seq and RNA-seq. ChIP-seq was performed to identify NCOA2 target genes in primary effusion lymphoma cells. NCoA2 localization is highly associated with active genes and localizes with RNA pol II at enhancer regions. […] The qRT-PCR was performed with specific primers. (FIG. 1H) Gene set enrichment analyses (GSEA). RNA sequencing was performed with peptide-treated PEL cells. […] (FIG. 1I) The peptide drug. Wt peptide or mutant peptide was incubated in culture media. Forty-eight hours later, live cells were measured by applying MTS. Cell viability was compared with no-treated samples. No treated sample was set as 1.
# BCBL-1 PEL cells = experiment: Cytokines in ascites of BCBL-1 PEL xenograft mice (Olink inflammatory panel); assay type: in vivo
# Protocol: Also, the effect of peptide on cytokine production by BCBL-1 PEL cells in xenograft mouse model was studied. Acsite was collected from NRG mice baring BCBL-1 PELs, which were either treated with wild type MBK50 (Wt) peptide (n=3), control Mut peptide (n=3) or left untreated (n=3) for 20 days. The levels of cytokines in the ascites were measured by Olink technology using inflammatory panel that can detect 92 inflammatory proteins. Data was analyzed with Olink Insights Stat analysis software. […] Thus, inflammatory protein expression profile of Wt peptide is distinct from the profile of other groups. […] On the right panel in (FIG. 12c), 15 cytokine expression levels expressed in NPX units, Olink's arbitrary unit, on log 2 scale were compared between untreated, mutant peptide and Wt peptide-treated groups.
sequence,measurement,setting,value
LSSILQGLYQLDT [MBK50],activity on BCL2 negative lymphoma cell lines,NU-DUL1 cell,still works
same,percentage of THP-1 cells with reduced IRF4 expression,IRF4,increased
same,effect on activated proliferating CD3 T cells,human CD3 T cells,preferentially targets actively dividing cells
same,percentage of live cells,CD14+ monocytes,significantly reduced
same,killing of PEL cancer cells,PEL cells,killed the cancer cells
same,decrease of CXCL10,BCBL-1 PEL cells,~200 fold
same,decrease of VEGFA,BCBL-1 PEL cells,~4 fold
same,expression change of the majority of the 15 cytokines,BCBL-1 PEL cells,about 2 fold
same,PC analysis of 92 inflammatory protein expression profiles,BCBL-1 PEL cells; 20 days treatment,away from the cluster
same,number of cytokines significantly up- or down-regulated among 92,BCBL-1 PEL cells; p<0.05,15
